Results on 22 compounds are retold here after PubChem BioAssay AID330 (DTP/NCI, 2004).

In the assay the test system is P388 leukemia ip, CD2F1 mice, survival T/C. Nature of the assay: NCI In Vivo Anticancer Drug Screen. Data for tumor model P388 Leukemia (intraperitoneal) in CD2F1 (CDF1) mice. The settings on record: endpoint: median survival time, higher = longer survival. The method in brief:
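Mice carrying the transplanted tumor received test compound or vehicle. Survival was recorded in each group, and the value is the treated-group measurement divided by that of the vehicle-treated control group.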

The mark [1] stands for this setting: dose: 50.0 mg/kg/injection, schedule: Q01DX005 (ip), vehicle: saline with Tween-80.
The mark [2] stands for this setting: dose: 100.0 mg/kg/injection, schedule: Q01DX005 (ip), vehicle: saline with Tween-80.
Where [3] appears, read: dose: 100.0 mg/kg/injection, schedule: Q04DX003 (ip), vehicle: Klucel (hydroxypropylcellulose) (HPC).
Setting [4] is: dose: 200.0 mg/kg/injection, schedule: Q04DX003 (ip), vehicle: Klucel (hydroxypropylcellulose) (HPC).
[5] abbreviates: dose: 400.0 mg/kg/injection, schedule: Q04DX003 (ip), vehicle: Klucel (hydroxypropylcellulose) (HPC).
[6] abbreviates: dose: 50.0 mg/kg/injection, schedule: Q01DX009 (ip), vehicle: saline with Tween-80.
[7] abbreviates: dose: 100.0 mg/kg/injection, schedule: Q01DX009 (ip), vehicle: saline with Tween-80.
[8] abbreviates: dose: 200.0 mg/kg/injection, schedule: Q01DX009 (ip), vehicle: saline with Tween-80.
Setting [9] is: dose: 6.25 mg/kg/injection, schedule: Q01DX005 (ip), vehicle: Klucel (hydroxypropylcellulose) (HPC).
Setting [10] is: dose: 12.5 mg/kg/injection, schedule: Q01DX005 (ip), vehicle: Klucel (hydroxypropylcellulose) (HPC).
Setting [11] is: dose: 25.0 mg/kg/injection, schedule: Q01DX009 (ip), vehicle: saline with Tween-80.
Setting [12] is: dose: 50.0 mg/kg/injection, schedule: Q01DX009 (ip), vehicle: saline.
Where [13] appears, read: dose: 12.5 mg/kg/injection, schedule: Q01DX009 (ip), vehicle: saline with Tween-80.

Values joined by “and” are separate entries in the source; they are usually repeats but may differ in a detail not shown here. Identical values can stand only once. Toxic doses and inconclusive results are not listed.

With `CN(C)C(=O)Nc1cccc2c(NC(=O)N(C)C)cccc12`, the T/C is 100 % of control and 103 % of control (dose: 50.0 mg/kg/injection, schedule: Q01DX009 (ip), vehicle: Klucel (hydroxypropylcellulose) (HPC)); 100 % of control (2×) and 93 % of control (dose: 100.0 mg/kg/injection, schedule: Q01DX009 (ip), vehicle: Klucel (hydroxypropylcellulose) (HPC)); 99 % of control and 87 % of control (dose: 200.0 mg/kg/injection, schedule: Q01DX009 (ip), vehicle: Klucel (hydroxypropylcellulose) (HPC)); 91 % of control (dose: 400.0 mg/kg/injection, schedule: Q01DX009 (ip), vehicle: Klucel (hydroxypropylcellulose) (HPC)).

Regarding `O=C1C2CC=CCC2C(=O)N1CC[P+](c1ccccc1)(c1ccccc1)c1ccccc1` (configuration not stated), the T/C runs as follows: (dose: 0.78 mg/kg/injection, schedule: Q01DX009 (ip), vehicle: water) 100 % of control; (dose: 1.56 mg/kg/injection, schedule: Q01DX009 (ip), vehicle: water) 102 % of control and 95 % of control; (dose: 3.13 mg/kg/injection, schedule: Q01DX009 (ip), vehicle: water) 102 % of control and 106 % of control; (dose: 6.25 mg/kg/injection, schedule: Q01DX009 (ip), vehicle: water) 112 % of control; (dose: 12.5 mg/kg/injection, schedule: Q01DX009 (ip), vehicle: water) 115 % of control and 116 % of control; (dose: 25.0 mg/kg/injection, schedule: Q01DX009 (ip), vehicle: water) 115 % of control.

On to `CC1(Br)CN(C(=S)Nc2ccccc2)C1=O` (configuration not stated), for which the T/C was 108 % of control under setting [1]; 105 % of control under setting [2]; 104 % of control (dose: 200.0 mg/kg/injection, schedule: Q01DX005 (ip), vehicle: saline with Tween-80).

Consider `CCC(c1ccc(OCc2ccccc2)cc1)c1cc2c(cc1OCCO)OCO2` (configuration not stated), for which the T/C (dose: 50.0 mg/kg/injection, schedule: Q01DX005 (ip), vehicle: distilled water + Tween-80) is 87 % of control; the T/C (dose: 100.0 mg/kg/injection, schedule: Q01DX005 (ip), vehicle: distilled water + Tween-80) was 87 % of control; the T/C (dose: 200.0 mg/kg/injection, schedule: Q01DX005 (ip), vehicle: distilled water + Tween-80) was 89 % of control.

Take `O=C1c2ccncc2C(=O)c2c(O)ccc(O)c21`: the T/C was 102 % of control (dose: 12.5 mg/kg/injection, schedule: Q01DX009 (ip), vehicle: distilled water + Tween-80); 100 % of control (dose: 25.0 mg/kg/injection, schedule: Q01DX009 (ip), vehicle: distilled water + Tween-80); 98 % of control (dose: 50.0 mg/kg/injection, schedule: Q01DX009 (ip), vehicle: distilled water + Tween-80); 109 % of control (dose: 100.0 mg/kg/injection, schedule: Q01DX009 (ip), vehicle: distilled water + Tween-80).

With `C[C@@H]1CC(c2ccc(Cl)cc2)[C@@H](c2ccccc2)C(=O)O1` (some centres not stated), the T/C under setting [3] is 100 % of control, the T/C under setting [4] is 99 % of control and the T/C under setting [5] is 97 % of control.

For `Cc1cccc(C)c1NC(=S)NC(=O)c1ccccc1`, the T/C by setting is: under setting [6], 100 % of control; under setting [7], 98 % of control; under setting [8], 100 % of control.

As for `Cc1cc2[nH]c3c(C#N)c(O)c(C)c(=O)n3c2cc1C`, the T/C is, setting by setting: (dose: 60.0 mg/kg/injection, schedule: Q01DX005 (ip), vehicle: saline with Tween-80) 100 % of control; (dose: 120.0 mg/kg/injection, schedule: Q01DX005 (ip), vehicle: saline with Tween-80) 100 % of control; (dose: 240.0 mg/kg/injection, schedule: Q01DX005 (ip), vehicle: saline with Tween-80) 100 % of control.

In the case of `COc1cc(NC(=O)c2ccc(NC(=O)c3ccc(N)cc3)cc2)c(OC)cc1N=Nc1cc(C)c(N=Nc2cc(S(=O)(=O)O)c3cccc(S(=O)(=O)O)c3c2)cc1C`, the T/C was 100 % of control under setting [1] and 94 % of control under setting [2].

Take `C=C1OC(CC(C)C)=C(C(=O)OC(C)(C)C)C1C` (configuration not stated): the T/C reads like this: (dose: 100.0 mg/kg/injection, schedule: Q01DX001 (ip), vehicle: saline with Tween-80) 99 % of control; (dose: 200.0 mg/kg/injection, schedule: Q01DX001 (ip), vehicle: saline with Tween-80) 99 % of control; (dose: 400.0 mg/kg/injection, schedule: Q01DX001 (ip), vehicle: saline with Tween-80) 100 % of control.

Consider `CC12CCC(OC3OC(CO)C(O)C(O)C3O)C=C1CCC1C2CCC2(C)C(c3ccc(=O)oc3)CCC12` (configuration not stated), for which the T/C under setting [9] was 95 % of control; the T/C under setting [10] was 98 % of control; the T/C (dose: 25.0 mg/kg/injection, schedule: Q01DX005 (ip), vehicle: Klucel (hydroxypropylcellulose) (HPC)) was 101 % of control and 98 % of control.

Take `CC(=O)c1ccc(N=NN(C)c2ccc(C(C)=O)cc2)cc1`: the T/C is 108 % of control under setting [6], 107 % of control under setting [7] and 101 % of control under setting [8].

For the compound `Nc1nc(=S)c2ncn(C3OC(COC(=O)c4ccccc4)C(OC(=O)c4ccccc4)C3OC(=O)c3ccccc3)c2[nH]1` (configuration not stated), the T/C runs as follows: (dose: 4.4 mg/kg/injection, schedule: Q01DX009 (ip), vehicle: saline with Tween-80) 109 % of control; (dose: 6.6 mg/kg/injection, schedule: Q01DX009 (ip), vehicle: saline with Tween-80) 113 % of control; (dose: 10.0 mg/kg/injection, schedule: Q01DX009 (ip), vehicle: saline with Tween-80) 122 % of control; (dose: 44.0 mg/kg/injection, schedule: Q04DX003 (ip), vehicle: saline with Tween-80) 108 % of control; under setting [6], 170 % of control; (dose: 66.0 mg/kg/injection, schedule: Q04DX003 (ip), vehicle: saline with Tween-80) 116 % of control. Also, the T/C under setting [7] was 90 % of control.

`Nc1nnnn1-c1ccccc1Cl`: the T/C reads like this: under setting [3], 105 % of control; under setting [4], 100 % of control; under setting [5], 101 % of control.

`CCN=C(Nc1cccc(C2=NCCN2)c1)c1ccc(C(=NCC)Nc2cccc(C3=NCCN3)c2)cc1`: the T/C (dose: 1.56 mg/kg/injection, schedule: Q01DX005 (ip), vehicle: Klucel (hydroxypropylcellulose) (HPC)) is 100 % of control; the T/C (dose: 3.12 mg/kg/injection, schedule: Q01DX005 (ip), vehicle: Klucel (hydroxypropylcellulose) (HPC)) is 99 % of control; the T/C under setting [9] was 109 % of control; the T/C under setting [10] is 109 % of control.

Take `COc1ccc(-n2c(-c3ccc(Cl)cc3)csc2=N)c(OC)c1`: the T/C is, setting by setting: under setting [11], 97 % of control; under setting [6], 106 % of control; under setting [12], 114 % of control; under setting [7], 100 % of control; (dose: 100.0 mg/kg/injection, schedule: Q01DX009 (ip), vehicle: saline) 109 % of control.

Regarding `Cn1c(=O)c2c(ncn2CCNC(c2ccccc2)c2ccc(Br)cc2)n(C)c1=O` (configuration not stated), the T/C is, setting by setting: (dose: 6.25 mg/kg/injection, schedule: Q01DX005 (ip), vehicle: alkali diluted with saline) 100 % of control; (dose: 12.5 mg/kg/injection, schedule: Q01DX005 (ip), vehicle: alkali diluted with saline) 96 % of control; (dose: 25.0 mg/kg/injection, schedule: Q01DX005 (ip), vehicle: alkali diluted with saline) 107 % of control.

For `O=C(N=C1SC(=NC2CCCCC2)N1C1CCCCC1)c1ccccc1`, the T/C (dose: 100.0 mg/kg/injection, schedule: Q01DX001 (ip), vehicle: Klucel (hydroxypropylcellulose) (HPC)) is 95 % of control and the T/C (dose: 200.0 mg/kg/injection, schedule: Q01DX001 (ip), vehicle: Klucel (hydroxypropylcellulose) (HPC)) is 100 % of control.

`CCCCCCCCCCCCCC[N+]1([O-])CCCCC1`: the T/C was 100 % of control (dose: 12.5 mg/kg/injection, schedule: Q01DX009 (ip), vehicle: saline); 92 % of control (dose: 25.0 mg/kg/injection, schedule: Q01DX009 (ip), vehicle: saline); 106 % of control and 91 % of control under setting [12].

For the compound `O=C(NS(=O)(=O)c1ccc(Cl)cc1)c1ccccc1`, the T/C under setting [13] is 102 % of control and 91 % of control; the T/C under setting [11] is 106 % of control; the T/C under setting [6] is 100 % of control and 94 % of control.

In the case of `O=c1nc(Nc2cccc(Cl)c2)oc2cc(Cl)oc(=O)c12`, the T/C under setting [13] was 109 % of control; the T/C under setting [11] is 109 % of control; the T/C under setting [6] is 113 % of control and 115 % of control; the T/C under setting [7] is 95 % of control.

For the compound `CCOP(=O)(O)OCC`, the T/C runs as follows: under setting [3], 93 % of control; under setting [4], 89 % of control; under setting [5], 96 % of control.
